This is an account of results in US20080057136A1, “Disinfecting Composition and Methods of Making and Using Same” (priority 2003, published 2008).

SMILES strings stand for the structures. In brackets after ≈: the same amount, converted by molar mass. Several values for one entry are separate records, joined by “and”; a condition that tells them apart may be missing. Equal entries are not always repeated. A value given as a limit tells only on which side of the number the result lay.

Experiment [1] relates to T. rubrum ATCC 28188. Put plainly: NCCLS broth microdilution MIC and MFC (Example 10). The following applies: Example 10; for MIC: 80% reduction in growth, amphotericin B complete inhibition; for MFC: 99.9% inhibition of growth; for fungicidal activity: MFC within 1 doubling dilution of the MIC. Format: cell-based, Trichophyton rubrum. Background: Dilution methods test growth across graded concentrations, often in twofold steps.
Experimental: (§3) Strains of E. coli (ATCC 11229), D. aeruginosa (ATCC 15442), S. aureus (ATCC 25923), S. epidermidis (ATCC 12228), S. pyogenes (ATCC 19615), C. albicans (ATCC 10231), and T. rubrum (ATCC 28188) were used as “challenge microorganisms” in this study. Strains were removed from frozen stock and subcultured twice on blood agar to ensure that the strains had optimal growth and metabolic status before testing.
(§4) Amphotericin B, fluconazole, and Hibiclens were added as comparative agents in the fungal panels.
(§5) For testing purposes, AMC, AMC components, and Hibiclens were diluted to 50% of the working solution to cover the proposed AMC use dilution of 20%.
(§6) Microtiter panels were created on the day of MIC testing. A 50 μl aliquot of Mueller-Hinton broth (for bacterial strains) or RPMI 1640 (for fungal strains) was delivered to each well, except those in column one of the microtiter panel. The working solution of AMC and each of its components, and comparative agents were delivered to the designated wells in column one. AMC, components, and comparators were serially diluted across the panel. A 50 μl aliquot of bacterial or fungal suspension was then added to each well on the microtiter panel, using a new pipette tip for each aliquot. Panels were incubated at 35° C. for 16-20 h for the E. coli, P. aeruginosa, and S. aureus strains, 20-24 h for the S. pyogenes strain, and 48 h for the C. albicans strain. T. rubrum panels were incubated for 3 to 4 days before MICs were read. […] Fungal MICs (%) were read using an 80% reduction in the growth endpoint relative to the turbidity of the growth control for AMC, its components, and fluconazole. For amphotericin B, the endpoint was read as the complete inhibition of growth.
(§7) MFCs were determined in a similar manner.
(§8) The endpoint for amphotericin B was read as complete inhibition of growth. The MIC % is expressed as g/100 ml or ml/100 ml. […] The MFC % is expressed as g/100 ml or ml/100 ml.

The subject of experiment [2] is T. rubrum ATCC 28188. Put plainly: NCCLS broth microdilution MIC and MFC (Example 11). Type of experiment: cell-based, Trichophyton rubrum. The following applies: Example 11; for fungicidal activity: MFC within 1 doubling dilution of the MIC.
Experimental: (§9) Strains of C. albicans (ATCC 10231) and T. rubrum (ATCC 28188) were tested in this study. Strains were removed from frozen stock and subcultured twice on blood agar to ensure that the strains had optimal growth and metabolic status before testing. Strains were tested by NCCLS broth microdilution (M27-A2, 2002) and challenged with AMC solution and its individual components […] ), and isopropanol. Amphotericin B, fluconazole, terbinafine, and Hibiclens were added as comparator compounds. […] Microtiter panels were created on the day of MIC testing. A 50 μl aliquot of RPMI 1640 was delivered to each well except those in column one of the microtiter panel. The working solution of AMC and each of its components, and comparative agents were delivered to the designated wells in column one; AMC, components, and comparators were serially diluted across the panel. A 50 μl aliquot of fungal suspension was then added to each well on the microtiter panel, using a new pipette tip for each aliquot. […] For amphotericin B, the endpoint was read as the complete inhibition of growth. […] MFCs were performed to determine the concentration at which ≧99% of the starting fungal inoculum was killed. […] After incubation, colony counts for each panel well plated were recorded. […] The endpoint for amphotericin B was read as complete inhibition of growth.
The test system of experiment [3] is Trichophyton rubrum (ATCC 28188). Put plainly: Time-Kill test (Example 9). The following applies: Study 506-103. Type of experiment: cell-based.
Experimental: (§10) A panel of “challenge microorganisms,” including select bacteria, yeast, and fungi was used to assess the disinfecting properties of test compounds, e.g., AMC (DPT Laboratories). […] The procedure was based on the ASTM procedure entitled, “Standard Test Method for the Assessment of Microbial Activity of Test Materials Using Time-Kill Procedure.”
(§11) A single lot of test material was prepared at various concentrations, along with multiple compounds prepared in various concentrations and combinations. These test materials were tested in duplicate against various bacteria, yeast and fungi. To minimize potential buffer interference and to minimize reduction of antimicrobial activity, the volume of the inoculum added to the test material was maintained at, or below, 1% of the total volume of the test. Samples were removed at various contact times. Serial dilutions were performed, and duplicate aliquots were plated. The plates were then incubated, and the average colony forming units (CFU) recovered per milliliter were determined for each contact time. The contact times for the test compounds with S. aureus, E. coli, P. aeruginosa, and C. albicans were 30 sec, 1 min, and 5 min. The contact times for the test compounds with B. subtilis were 1 and 10 min, 1 h, 2 h, 3 h, and 24 h. The contact times for the test compounds with T. rubrum were 30 sec, 1 min and 10 min. The contact temperature was ambient room temperature (20-21° C.).
The fungus, T. rubrum, was inoculated onto Emmon's agar (EA) and incubated at 25-30° C. for 10-15 days. The mycelial mats from mature cultures were removed from the surface of at least 5 plates and macerated with sterile saline (SS) in a sterile glass tissue grinder. The suspension was filtered through sterile glass wool to remove the hyphae.
The density of the conidial suspension was determined by serially diluting the prepared culture in BPDW. Aliquots from selected dilutions were plated on duplicate EA plates. The plates were incubated for 3-5 days at 25-30° C. and then each plate was examined for enumeration.
The suspension was stored at 2-10° C. for 4 weeks before use. On the day of testing, the suspension was adjusted to yield approximately 5.0×10^8 CFU by dilution with BPDW.
(§12) Compliant with the ASTM procedure cited above, the challenge microorganism was added to the test material by dispensing 99 ml of the test material into two sterile flasks, each containing a stir bar. The reaction flasks were allowed to equilibrate to the test temperature for at least 10 minutes. The flasks were placed in water baths on stir plates and maintained at the test temperature with stirring. A 1 ml aliquot of the prepared inoculum of the challenge microorganism was added to each flask to begin the contact period. At each contact time, 1 ml aliquot samples were removed and added to tubes containing 9 ml PBDW+. Serial 10-fold dilutions of each sample were then prepared in PBDW dilution blanks. Duplicate aliquots from selected dilutions were plated using the appropriate agar.
(§13) Upon completion of all contact periods, all plates were inverted and incubated for the appropriate time and temperature as follows: bacteria and yeast were incubated over 2 nights at 37° C.±2° C., and the fungus was incubated for at least 5 nights at 25-30° C. Following incubation, all plates were removed, the colonies were counted and the CFU recovered per ml at each contact time were calculated.
Another experiment has as its system T. rubrum. In words: MIC and MBC determination by doubling dilutions (Study 509-102). Format: cell-based, Trichophyton rubrum. An excerpt: (§1) Table 2 below indicates the stock dilutions for each test agent, and a breakdown of the resulting concentrations for each of the doubling dilutions performed is summarized in Table 3.
(§2) From the stock dilutions, an initial 1:10 dilution was made (representing tube 1), followed by doubling dilutions (tubes 2-12), as detailed in Table 3.

Experiment [4] has as its system C. albicans ATCC 10231. Put plainly: NCCLS broth microdilution MIC and MFC (Example 11). Format: cell-based, Candida albicans. To be noted: for MIC: amphotericin B complete inhibition, terbinafine 50%/90%; for fungicidal activity: MFC within 1 doubling dilution of the MIC.
Experimental: as §9
In experiment [5] the test system is C. albicans ATCC 10231. Put plainly: NCCLS broth microdilution MIC and MFC (Example 10). To be noted: for MIC: amphotericin B complete inhibition; for fungicidal activity: MFC within 1 doubling dilution of the MIC. Format: cell-based, Candida albicans.
Experimental: as §3, §4, §5, §6, §7, §8
The test system of experiment [6] is Candida albicans (ATCC 10231). Put plainly: Time-Kill test (Example 9). Type of experiment: cell-based. To be noted: Study 506-103.
Experimental: as §10, §11
Bacteria and C. albicans from stock cultures were transferred into trypticase soya broth (TSB) and incubated for 18-24 hours at 37° C.±2° C. A second transfer was made onto Trypticase Soya Agar (TSA). The plate was removed from incubation and the growth was washed from the agar surface with Butterfield's Phosphate Buffered Dilution Water (PBDW). The microbe concentration was measured using a spectrophotometric technique well-known in the art. The suspension was subsequently adjusted to contain approximately 10^8 colony forming units (CFU) per ml. • 2.
as §12, §13
For each challenge microorganism, 99 ml of PBDW was dispensed into a sterile flask, and a 1 ml aliquot of prepared inoculum was added to the flask with stirring.
In the next experiment the test system is C. albicans. In words: MIC and MBC determination by doubling dilutions (Study 509-102). Format: cell-based. To be noted: Candida albicans, Inoculum Counts: 6.6 × 10^5.
Text: as §1, §2

Setting [7] is: Study 509-102, Inoculum Counts: 3.6 × 10^8.
Setting [8] is: Trichophyton rubrum, ATCC28188, read-out: MFC.
Where [9] appears, read: Candida albicans, ATCC10231, 80% reduction in growth, read-out: MIC.
[10] abbreviates: Candida albicans, ATCC10231, read-out: MFC.
[11] abbreviates: Trichophyton rubrum, Study 509-102, Inoculum Counts: 3.6 × 10^8.

In the case of `C[C@@H]1[C@H](O)[C@@H](C)/C=C/C=C/C=C/C=C/C=C/C=C/C=C/[C@H](O[C@@H]2O[C@H](C)[C@@H](O)[C@H](N)[C@@H]2O)C[C@@H]2O[C@](O)(C[C@@H](O)C[C@@H](O)[C@H](O)CC[C@@H](O)C[C@@H](O)CC(=O)O[C@H]1C)C[C@H](O)[C@H]2C(=O)O` [Amphotericin B], the “MIC” value with T. rubrum ATCC 28188 [1] came to 0.25 µg/mL (≈ 0.271 µM); against T. rubrum ATCC 28188 [2] (80% reduction in growth, amphotericin B complete inhibition) it was 0.25 µg/mL (≈ 0.271 µM); against C. albicans ATCC 10231 [4] (80% reduction in growth), 0.25 µg/mL (≈ 0.271 µM); in the experiment on C. albicans ATCC 10231 [5] (80% reduction in growth), 0.12 µg/mL (≈ 0.13 µM). For the same molecule, the “MFC” value in the experiment on T. rubrum ATCC 28188 [1] was found to be 0.5 µg/mL (≈ 0.541 µM); with T. rubrum ATCC 28188 [2], 0.5 µg/mL (≈ 0.541 µM); in the experiment with C. albicans ATCC 10231 [4], 0.5 µg/mL (≈ 0.541 µM); against C. albicans ATCC 10231 [5] (99.9% inhibition of growth), 0.12 µg/mL (≈ 0.13 µM). The fungicidal activity entry is “Fungicidal activity was observed” in the experiment on T. rubrum ATCC 28188 [1], “Fungicidal activity was observed” with T. rubrum ATCC 28188 [2], “Fungicidal activity” in the experiment on C. albicans ATCC 10231 [4] and “Fungal activity” in the experiment with C. albicans ATCC 10231 [5]. In addition, the “Log10 Reduction” value is 1.0 Log10 in experiment [3] (30 sec. contact); 1.2 Log10 and 1.1 Log10 in experiment [3] (60 sec. contact); 1.0 Log10 in experiment [3] (10 min. contact). The “CFUs recovered per milliliter of T. rubrum culture” value in experiment [3] (30 sec. contact, initial 1.0 × 10^6 CFU/ml, Amphotericin B 2.5 mg/L) is 1.0 × 10^5 CFU/ml and 1.1 × 10^5 CFU/ml; in experiment [3] (60 sec. contact), 6.9 × 10^4 CFU/ml and 8.7 × 10^4 CFU/ml. Further, the “MBC (ppm)” value against T. rubrum (setting [7]) is given as above 0.25 ppm. In the experiment on T. rubrum (setting [7]), the “MIC (ppm)” value is reported as above 0.25 ppm. The “MIC Against T. rubrum” value with T. rubrum (Table 23, row head prints μg/mL) is above 0.25 µg/mL.

Turning to `OC(Cn1cncn1)(Cn1cncn1)c1ccc(F)cc1F` [Fluconazole], the fungicidal activity entry with T. rubrum ATCC 28188 [1] is “did not demonstrate fungicidal activity”; in the experiment with T. rubrum ATCC 28188 [2], “did not demonstrate fungicidal activity”; with C. albicans ATCC 10231 [4] it was “Fungicidal activity”; in the experiment on C. albicans ATCC 10231 [5], “not considered fungicidal”. The MIC is 2 µg/mL (≈ 6.53 µM) in the experiment with T. rubrum ATCC 28188 [1] (Trichophyton rubrum, ATCC28188, read-out: MIC); 2 µg/mL (≈ 6.53 µM) in the experiment with T. rubrum ATCC 28188 [2] (Trichophyton rubrum, ATCC28188, 80% reduction in growth, amphotericin B complete inhibition, read-out: MIC); 0.5 µg/mL (≈ 1.63 µM) with C. albicans ATCC 10231 [4] (setting [9]); 0.5 µg/mL (≈ 1.63 µM) in the experiment on C. albicans ATCC 10231 [5] (setting [9]). Moreover, the MFC in the experiment on T. rubrum ATCC 28188 [1] (setting [8]) worked out at 8 µg/mL (≈ 26.1 µM); with T. rubrum ATCC 28188 [2] (setting [8]), 64 µg/mL (≈ 209 µM); in the experiment with C. albicans ATCC 10231 [4] (setting [10]), 1 µg/mL (≈ 3.27 µM); with C. albicans ATCC 10231 [5] (Candida albicans, ATCC10231, 99.9% inhibition of growth, read-out: MFC), 2 µg/mL (≈ 6.53 µM). Moreover, the “Log10 Reduction” value in experiment [6] (30 sec. contact), in experiment [6] (60 sec. contact) and in experiment [6] (5 min. contact) was below 1.0 Log10 in each case. Further, the “CFUs recovered per milliliter of C. albicans culture” value in experiment [6] (30 sec. contact, initial 3.0 × 10^7 CFU/ml, Fluconazole 2 mg/ml) is recorded as 3.0 × 10^6 CFU/ml; in experiment [6] (60 sec. contact), 3.0 × 10^6 CFU/ml; in experiment [6] (5 min. contact), 3.0 × 10^6 CFU/ml.

Consider `Clc1ccc(COC(Cn2ccnc2)c2ccc(Cl)cc2Cl)c(Cl)c1` (centres unmarked) [Miconazole], for which, in the experiment with C. albicans, the MBC is 2 µg/mL (≈ 4.81 µM) and the MIC is 2 µg/mL (≈ 4.81 µM). Moreover, in the experiment on T. rubrum (setting [11]), the MBC turned out to be 0.25 µg/mL (≈ 0.601 µM) and the MIC stood at 0.25 µg/mL (≈ 0.601 µM).

On to `CN(C/C=C/C#CC(C)(C)C)Cc1cccc2ccccc12` [Terbinafine], for which the fungicidal activity entry was “did not demonstrate fungicidal activity” in the experiment with T. rubrum ATCC 28188 [2] and “Fungicidal activity” in the experiment with C. albicans ATCC 10231 [4]. Further, the MIC in the experiment on T. rubrum ATCC 28188 [2] (Trichophyton rubrum, ATCC28188, read-out: MIC (μg/ml), read at 50% inhibition of growth, terbinafine, 50% reading) was 0.008 µg/mL (≈ 0.0275 µM); with T. rubrum ATCC 28188 [2] (Trichophyton rubrum, ATCC28188, read-out: MIC (μg/ml), read at 90% inhibition of growth, terbinafine, 90% reading), 0.032 µg/mL (≈ 0.11 µM); with C. albicans ATCC 10231 [4] (80% reduction in growth) it was above 0.5 µg/mL; with C. albicans ATCC 10231 [4] (setting [9]), above 0.5 µg/mL. Also, the figures for the MFC with T. rubrum ATCC 28188 [2] (setting [8]) and in the experiment with C. albicans ATCC 10231 [4] (setting [10]) were 0.125 µg/mL (≈ 0.429 µM) and above 0.5 µg/mL, respectively.
